This is an account of results in patent US10525110B2, “Methods for inducing partial apoptosis using caspase polypeptides” (Bellicum Pharmaceuticals, Inc., priority 2013, dated 2020).

In series [1] the test system is F-Casp9M.I.GFPhigh-transduced T cells. As to the kind of experiment: Annexin-V/7-AAD staining of GFPhigh-selected iCasp9M-transduced T cells after CID. The series is classed as cell-based, human.
In series [2] the test system is differentiated progeny of human MSCs expressing iCasp9. In words: Apoptosis of differentiated iCasp9-positive MSCs (TUNEL, cell density). Format: cell-based. As to conditions: adipocytic differentiation, 50 nM CID, after 24 hours (from 584 cells/mm2). As to the method:
Differentiated MSCs. Transduced MSCs were differentiated as presented above. At the end of the differentiation period, CID was added to the differentiation media at 50 nM. Cells were stained appropriately for the tissue being studied, as presented above, and a contrast stain (methylene azur or methylene blue) was used to evaluate the nuclear and cytoplasmic morphology. In parallel, tissues were processed for terminal deoxynucleotidyl-transferase dUTP nick end labeling (TUNEL) assay as per manufacturer instructions (In Situ Cell Death Detection Kit, Roche Diagnostics, Mannheim, Germany). For each time point, four random fields were photographed at a final magnification of 40× and the images were analyzed with ImageJ software version 1.43o (NIH, Bethesda, Md.). Cell density was calculated as the number of nuclei (DAPI positivity) per unit of surface area (in mm^2). The percentage of apoptotic cells was determined as the ratio of the number of nuclei with positive TUNEL signal (FITC positivity) to the total number of nuclei. Controls were maintained in culture without CID.
After culture in adipocytic differentiation media, iCasp9-positive cells gave rise to adipocytes. After exposure to 50 nM CID, progressive apoptosis was observed as evidenced by an increasing proportion of TUNEL-positive cells. […]

The test system of a further series is non-transduced cells. In words: Viability of non-transduced cells with AP20187. The series is classed as cell-based, human. On the procedure:
Suicide gene functionality was assessed by adding a small molecule synthetic homodimerizer, AP20187 (Ariad Pharmaceuticals; Cambridge, Mass.), at 10 nM final concentration the day following CD19 immunomagnetic selection. Cells were stained with annexin V and 7-amino-actinomycin (7-AAD)(BD Pharmingen) at 24 hours and analyzed by flow cytometry. Cells negative for both annexin V and 7-AAD were considered viable, cells that were annexin V positive were apoptotic, and cells that were both annexin V and 7-AAD positive were necrotic. The percentage killing induced by dimerization was corrected for baseline viability as follows: Percentage killing=100%−(% Viability in AP20187-treated cells÷% Viability in non-treated cells).
The day following immunomagnetic selection, 10 nM of the chemical inducer of dimerization, AP20187, was added to induce apoptosis, which appeared within 24 hours. […] Killing efficiency after correction for baseline viability was about 92.9%±3.8%. Large-scale CD19 selection produced cells that were killed with similar efficiency as small-scale selection: mean viability with and without AP20187, and percentage killing, in large and small scale were about 3.9%, about 84.0%, about 95.4% (n=3) and about 6.6%, about 79.3%, about 91.4% (n=5) respectively. […]

Series [3] has as its system T cells transduced with these inducible death molecules. Conditions: inducible Fas or FADD DED; cited from earlier work.
Where [4] appears, read: representative example of 3 separate experiments.

On to `CC[C@H](C(=O)N1CCCC[C@H]1C(=O)O[C@H](CCc1ccc(OC)c(OC)c1)c1cccc(OCC(=O)NCC(CNC(=O)COc2cccc([C@@H](CCc3ccc(OC)c(OC)c3)OC(=O)[C@@H]3CCCCN3C(=O)[C@@H](CC)c3cc(OC)c(OC)c(OC)c3)c2)CN(C)C)c1)c1cc(OC)c(OC)c(OC)c1` [AP20187], for which the “time to apoptotic characteristics (cell shrinkage and fragmentation) after CID administration” value in series [1] (GFPhigh-selected cells) is not above 14 h. Further, in series [1] (setting [4]), the “apoptotic phenotype (annexin V+, 7-AAD−)” value was found to be 64% and the “necrotic phenotype (annexin V+, 7-AAD+)” value was 32%. In addition, the “cell density after CID” value in series [2] is listed as less than 14 cells/mm2. Besides, the “toxicity to non-transduced cells” value in the series on non-transduced cells is recorded as “non-toxic”. Further, in the series on non-transduced cells (n=6), the “viability of non-transduced cells with AP20187” value was “about 86%±9”. Moreover, in series [3], the “transduced T cells undergoing apoptosis after administration of CID” value is reported as “Up to 90%”.
